Measurements taken from patent EP3046573B1, “AMYLIN ANALOGUES” (Zealand Pharma A/S, priority 2013, dated 2015).
Like-named read-outs stand apart in the source and are kept apart here. Numbered stars: 1 amine (or outer) side, 2 acyl side, 3 side chain; on linkers, the order of the positions; unused ones are H or OH. Bridge positions count the residues as written; N and C are the ends. Square brackets hold non-standard residues; d marks the D form. Peptide text beside a SMILES is read from it. * marks the point of attachment. C20 diacid = O=C(O)CCCCCCCCCCCCCCCCCCC(=O)*; γGlu = O=C(O)[C@H](CCC(=O)[*:2])N[*:1]; NMeI = CC[C@H](C)[C@H](NC)C(=O)O; Sar = CNCC(=O)O

Key:
[1] = target: T1, human calcitonin receptor (hCTR2) (Homo sapiens, UniProt P30988); assay: hCTR2 assay: induction of cAMP (AlphaScreen cAMP Assay kit) in COS7 cells expressing hCTR2; type: cell-based
T1 construct: expressed in transfected cells
T1 sequence (P30988 25-474): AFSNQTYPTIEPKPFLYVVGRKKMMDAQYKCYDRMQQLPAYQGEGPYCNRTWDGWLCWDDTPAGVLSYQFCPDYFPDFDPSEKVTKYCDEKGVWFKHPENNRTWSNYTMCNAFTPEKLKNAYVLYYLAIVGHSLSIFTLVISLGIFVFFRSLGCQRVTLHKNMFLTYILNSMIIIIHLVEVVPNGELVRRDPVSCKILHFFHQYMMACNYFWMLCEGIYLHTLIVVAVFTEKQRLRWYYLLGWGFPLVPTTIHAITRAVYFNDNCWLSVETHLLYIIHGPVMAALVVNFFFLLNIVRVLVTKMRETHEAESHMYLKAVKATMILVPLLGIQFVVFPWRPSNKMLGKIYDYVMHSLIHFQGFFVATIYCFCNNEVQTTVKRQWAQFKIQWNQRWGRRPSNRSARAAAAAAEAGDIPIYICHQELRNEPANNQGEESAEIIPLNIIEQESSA
Summary of the method: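 Functional agonism is measured as cAMP accumulation in a COS7 line stably transfected with hCTR2, lacking endogenous RAMPs. Peptides act for 15 min at 37° C with IBMX present, and curves are fitted with a 4-parameter logistic model.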

[2] = target: T2, human amylin receptor 3 (hAMYR3) consisting of hCTR2 co-expressed with human Receptor Activity Modifying Protein 3 (hRAMP3) (Homo sapiens, UniProt O60896+P30988); assay: hAMYR3 assay: induction of cAMP (AlphaScreen cAMP Assay kit) in COS7 cells expressing hAMYR3; type: cell-based
T2 construct: expressed in transfected cells
T2 sequence (P30988 25-474): T1 sequence (P30988 25-474)
T2 sequence (O60896 24-148 partner): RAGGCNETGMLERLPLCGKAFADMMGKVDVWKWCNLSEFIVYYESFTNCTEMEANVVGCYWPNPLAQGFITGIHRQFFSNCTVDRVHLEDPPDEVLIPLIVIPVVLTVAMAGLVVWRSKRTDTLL
Summary of the method: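 Stable COS7 clone co-expressing hCTR2 and hRAMP3, stimulated 15 min at 37° C with increasing peptide in Tyrode buffer pH 7.4 with 100 µM IBMX and 0.1% casein. cAMP measured by AlphaScreen after lysis; EC50 and % efficacy versus pramlintide from 4PL fit.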

[3] = Solubility assessment (turbidity absorbance at 325 nm); type: physicochemical; conditions: stock 2 mg/ml diluted 1:1, ambient temperature (typically 25°C), n=1; for Solubility, Acetate buffer pH 4: 100 mM acetate buffer pH 4.0; for Solubility, Acetate buffer pH 5: 100 mM acetate buffer pH 5.0; for Solubility, Histidine buffer pH 6: 100 mM histidine buffer pH 6.0; for Solubility, Histidine buffer pH 7: 100 mM histidine buffer pH 7.0; for Solubility, Phosphate buffer pH 6: 100 mM phosphate buffer pH 6.0; for Solubility, Phosphate buffer pH 7: 100 mM phosphate buffer pH 7.0; for Solubility, Phosphate buffer pH 7.5: 100 mM phosphate buffer pH7.5
Summary of the method: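 Peptide stock (2 mg/ml, water pH 2.5) diluted 1:1 into 100 mM acetate (pH 4.0, 5.0), histidine (pH 6.0, 7.0) or phosphate (pH 6.0–7.5) buffer; absorbance at 325 nm read at about 25°C, n=1. A325 ≤ 0.02 taken as solubility ≥ 1 mg/ml.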

[4] = cAMP induction in COS7 cells expressing hAMYR3, average of a minimum of 3 determinations, read-out: hAMY R3 EC50
[5] = cAMP induction in COS7 cells expressing hCTR2, average of a minimum of 3 determinations, read-out: hCTR2 EC50

Row | SMILES | EC50 [1] [nM] | EC50 [2, 4] [nM] | Solubility, Acetate buffer pH 4 [3] | Solubility, Acetate buffer pH 5 [3] | Solubility, Histidine buffer pH 6 [3] | Solubility, Histidine buffer pH 7 [3] | Solubility, Phosphate buffer pH 6 [3] | Solubility, Phosphate buffer pH 7 [3] | Solubility, Phosphate buffer pH 7.5 [3] | EC50 [1, 5] [nM] | EC50 [2] [nM]
1 | CC[C@H](C)[C@@H](C(=O)N[C@@H](CC(C)C)C(=O)N[C@@H](CO)C(=O)N[C@@H](CO)C(=O)N[C@H](C(=O)N[C@@H](CCC(=O)O)C(=O)N[C@H](C(=O)NCC(=O)N[C@@H](CO)C(=O)N[C@@H](CCC(=O)O)C(=O)N[C@H](C(=O)N1CCC[C@H]1C(N)=O)[C@@H](C)O)C(C)C)[C@@H](C)O)N(C)C(=O)[C@H](C)NC(=O)CN(C)C(=O)[C@H](Cc1ccccc1)NC(=O)[C@H](CO)NC(=O)[C@H](CO)NC(=O)[C@H](CO)NC(=O)[C@H](CO)NC(=O)[C@H](CCCNC(=N)N)NC(=O)[C@H](Cc1c[nH]cn1)NC(=O)[C@H](CC(C)C)NC(=O)[C@H](Cc1ccccc1)NC(=O)[C@H](CCC(=O)O)NC(=O)[C@H](C)NC(=O)[C@H](CC(C)C)NC(=O)[C@H](CCCNC(=N)N)NC(=O)[C@H](CCC(N)=O)NC(=O)[C@@H](NC(=O)[C@H](C)NC(=O)[C@@H]1CSSC[C@H](NC(=O)[C@H](CCCNC(=N)N)NC(=O)CC[C@H](NC(=O)CCCCCCCCCCCCCCCCCCC(=O)O)C(=O)O)C(=O)N[C@@H](CO)C(=O)N[C@@H]([C@@H](C)O)C(=O)N[C@@H](C)C(=O)N[C@@H]([C@@H](C)O)C(=O)N1)[C@@H](C)O [Compound 126, [19CD]-isoGlu-RC()STATC()ATQRLAEFLHRSSSSF-Gly(Me)-A-Ile(Me)-LSSTEVGSETP-NH2] ({C20 diacid-γGlu}-RCSTATCATQRLAEFLHRSSSSF[Sar]A[NMeI]LSSTEVGSETP-NH2; disulfide 2-7) | 0.21 | 0.28 | SS (SS indicates solubility ≥ 1mg/ml) | SS (SS indicates solubility ≥ 1mg/ml) | SS (SS indicates solubility ≥ 1mg/ml) | SS (SS indicates solubility ≥ 1mg/ml) | SS (SS indicates solubility ≥ 1mg/ml) | SS (SS indicates solubility ≥ 1mg/ml) | SS (SS indicates solubility ≥ 1mg/ml) |  | 
2 | CC[C@H](C)[C@@H](C(=O)N[C@@H](CC(C)C)C(=O)N[C@@H](CO)C(=O)N[C@@H](CO)C(=O)N[C@H](C(=O)N[C@@H](CCC(=O)O)C(=O)N[C@H](C(=O)NCC(=O)N[C@@H](CO)C(=O)N[C@@H](CCC(=O)O)C(=O)N[C@H](C(=O)N1CCC[C@H]1C(N)=O)[C@@H](C)O)C(C)C)[C@@H](C)O)N(C)C(=O)[C@H](C)NC(=O)CN(C)C(=O)[C@H](Cc1ccccc1)NC(=O)[C@H](CO)NC(=O)[C@H](CO)NC(=O)[C@H](CO)NC(=O)[C@H](CO)NC(=O)[C@H](CCCNC(=N)N)NC(=O)[C@H](Cc1c[nH]cn1)NC(=O)[C@H](CC(C)C)NC(=O)[C@H](Cc1ccccc1)NC(=O)[C@H](CCC(=O)O)NC(=O)[C@H](C)NC(=O)[C@H](CC(C)C)NC(=O)[C@H](CCCNC(=N)N)NC(=O)[C@H](CCC(N)=O)NC(=O)[C@@H](NC(=O)[C@H](C)NC(=O)[C@@H]1CSSC[C@H](NC(=O)[C@H](CCCNC(=N)N)NC(=O)CC[C@H](NC(=O)CCCCCCCCCCCCCCCCCCC(=O)O)C(=O)O)C(=O)N[C@@H](CC(=O)O)C(=O)N[C@@H]([C@@H](C)O)C(=O)N[C@@H](C)C(=O)N[C@@H]([C@@H](C)O)C(=O)N1)[C@@H](C)O [Compound 127, [19CD]-isoGlu-RC()DTATC()ATQRLAEFLHRSSSSF-Gly(Me)-A-Ile(Me)-LSSTEVGSETP-NH2] ({C20 diacid-γGlu}-RCDTATCATQRLAEFLHRSSSSF[Sar]A[NMeI]LSSTEVGSETP-NH2; disulfide 2-7) |  | 0.58 | SS (SS indicates solubility ≥ 1mg/ml) | SS (SS indicates solubility ≥ 1mg/ml) | SS (SS indicates solubility ≥ 1mg/ml) | SS (SS indicates solubility ≥ 1mg/ml) | SS (SS indicates solubility ≥ 1mg/ml) | SS (SS indicates solubility ≥ 1mg/ml) | SS (SS indicates solubility ≥ 1mg/ml) | 0.19 | 
3 | CC[C@H](C)[C@@H](C(=O)N[C@@H](CC(C)C)C(=O)N[C@@H](CO)C(=O)N[C@@H](CO)C(=O)N[C@H](C(=O)N[C@@H](CCC(=O)O)C(=O)N[C@H](C(=O)NCC(=O)N[C@@H](CO)C(=O)N[C@@H](CCC(=O)O)C(=O)N[C@H](C(=O)N1CCC[C@H]1C(N)=O)[C@@H](C)O)C(C)C)[C@@H](C)O)N(C)C(=O)[C@H](C)NC(=O)CN(C)C(=O)[C@H](Cc1ccccc1)NC(=O)[C@H](CO)NC(=O)[C@H](CO)NC(=O)[C@H](CO)NC(=O)[C@H](CO)NC(=O)[C@H](CCCNC(=N)N)NC(=O)[C@H](Cc1c[nH]cn1)NC(=O)[C@H](CC(C)C)NC(=O)[C@H](Cc1ccccc1)NC(=O)[C@H](CCC(=O)O)NC(=O)[C@H](C)NC(=O)[C@H](CC(C)C)NC(=O)[C@H](CCCNC(=N)N)NC(=O)[C@H](CCC(N)=O)NC(=O)[C@@H](NC(=O)[C@H](C)NC(=O)[C@@H]1CSSC[C@H](NC(=O)[C@H](CCCNC(=N)N)NC(=O)CC[C@H](NC(=O)CCCCCCCCCCCCCCCCCCC(=O)O)C(=O)O)C(=O)N2CCC[C@H]2C(=O)N[C@@H]([C@@H](C)O)C(=O)N[C@@H](C)C(=O)N[C@@H]([C@@H](C)O)C(=O)N1)[C@@H](C)O [Compound 129, [19CD]-isoGlu-RC()PTATC()ATQRLAEFLHRSSSSF-Gly(Me)-A-Ile(Me)-LSSTEVGSETP-NH2] ({C20 diacid-γGlu}-RCPTATCATQRLAEFLHRSSSSF[Sar]A[NMeI]LSSTEVGSETP-NH2; disulfide 2-7) |  |  | SS (SS indicates solubility ≥ 1mg/ml) | SS (SS indicates solubility ≥ 1mg/ml) | SS (SS indicates solubility ≥ 1mg/ml) | SS (SS indicates solubility ≥ 1mg/ml) | SS (SS indicates solubility ≥ 1mg/ml) | SS (SS indicates solubility ≥ 1mg/ml) | SS (SS indicates solubility ≥ 1mg/ml) | 0.15 | 0.15
4 | CC[C@H](C)[C@@H](C(=O)N[C@@H](CC(C)C)C(=O)N[C@@H](CO)C(=O)N[C@@H](CO)C(=O)N[C@H](C(=O)N[C@@H](CCC(=O)O)C(=O)N[C@H](C(=O)NCC(=O)N[C@@H](CO)C(=O)N[C@@H](CCC(=O)O)C(=O)N[C@H](C(=O)N1CCC[C@H]1C(N)=O)[C@@H](C)O)C(C)C)[C@@H](C)O)N(C)C(=O)[C@H](C)NC(=O)CN(C)C(=O)[C@H](Cc1ccccc1)NC(=O)[C@H](CO)NC(=O)[C@H](CO)NC(=O)[C@H](CO)NC(=O)[C@H](CO)NC(=O)[C@H](CCCNC(=N)N)NC(=O)[C@H](Cc1c[nH]cn1)NC(=O)[C@H](CC(C)C)NC(=O)[C@H](Cc1ccccc1)NC(=O)[C@H](CCC(=O)O)NC(=O)[C@H](C)NC(=O)[C@H](CC(C)C)NC(=O)[C@H](CCCNC(=N)N)NC(=O)[C@H](CCC(N)=O)NC(=O)[C@@H](NC(=O)[C@H](C)NC(=O)[C@@H]1CSSC[C@H](NC(=O)[C@H](CCCNC(=N)N)NC(=O)CC[C@H](NC(=O)CCCCCCCCCCCCCCCCCCC(=O)O)C(=O)O)C(=O)NCC(=O)N[C@@H]([C@@H](C)O)C(=O)N[C@@H](C)C(=O)N[C@@H]([C@@H](C)O)C(=O)N1)[C@@H](C)O [Compound 130, [19CD]-isoGlu-RC()GTATC()ATQRLAEFLHRSSSSF-Gly(Me)-A-Ile(Me)-LSSTEVGSETP-NH2] ({C20 diacid-γGlu}-RCGTATCATQRLAEFLHRSSSSF[Sar]A[NMeI]LSSTEVGSETP-NH2; disulfide 2-7) |  |  | SS (SS indicates solubility ≥ 1mg/ml) | SS (SS indicates solubility ≥ 1mg/ml) | SS (SS indicates solubility ≥ 1mg/ml) | SS (SS indicates solubility ≥ 1mg/ml) | SS (SS indicates solubility ≥ 1mg/ml) | SS (SS indicates solubility ≥ 1mg/ml) | SS (SS indicates solubility ≥ 1mg/ml) | 0.11 | 0.15
